12 molecules from ChEMBL document CHEMBL3301562, “MMV Box screening against Plasmodium falciparum protein kinases and aminoacyl tRNA synthetases” can be followed below.

What all share (type): functional
Test [1] concerns the target T1, Cdk-related protein kinase 6 (Plasmodium falciparum, UniProt O77239).
T1 sequence (O77239 whole entry): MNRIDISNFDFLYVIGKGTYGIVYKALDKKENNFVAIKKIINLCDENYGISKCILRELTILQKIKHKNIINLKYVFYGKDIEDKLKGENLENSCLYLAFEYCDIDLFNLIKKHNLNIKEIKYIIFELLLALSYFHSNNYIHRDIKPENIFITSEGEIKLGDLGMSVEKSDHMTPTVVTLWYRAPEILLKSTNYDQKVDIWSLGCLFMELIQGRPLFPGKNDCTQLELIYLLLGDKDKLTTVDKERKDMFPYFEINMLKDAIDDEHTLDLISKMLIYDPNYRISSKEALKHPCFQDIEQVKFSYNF
As to the kind of experiment: Final concentrations were 1.5 uM ATP, 5 mM MnCl2, and 15 ug/ml PK6 in a buffer of 100 mM Tris-HCl (pH 7.5). 50 ug/mL MBP was provided as the substrate; 10 uM staurosporine was used as a control inhibitor. Incubation time was 3 hours and 40 minutes.The catalytic activity of each kinase was considered proportional to ATP consumed, as determined from measurements of residual [ATP] with the luciferase-based reagent Kinase-Glo (Promega) following incubation. Luminescence (proportional to residual [ATP]) was measured on the plate readers FLx800 (BioTek Instruments, Winooski, VT, USA) and MicroBeta2. For orientation: Kinase-Glo measures the ATP left after a reaction by luminescence.

Test [2] concerns the target T2, Proline--tRNA ligase (Plasmodium falciparum (isolate 3D7), UniProt Q8I5R7).
T2 sequence (Q8I5R7 whole entry): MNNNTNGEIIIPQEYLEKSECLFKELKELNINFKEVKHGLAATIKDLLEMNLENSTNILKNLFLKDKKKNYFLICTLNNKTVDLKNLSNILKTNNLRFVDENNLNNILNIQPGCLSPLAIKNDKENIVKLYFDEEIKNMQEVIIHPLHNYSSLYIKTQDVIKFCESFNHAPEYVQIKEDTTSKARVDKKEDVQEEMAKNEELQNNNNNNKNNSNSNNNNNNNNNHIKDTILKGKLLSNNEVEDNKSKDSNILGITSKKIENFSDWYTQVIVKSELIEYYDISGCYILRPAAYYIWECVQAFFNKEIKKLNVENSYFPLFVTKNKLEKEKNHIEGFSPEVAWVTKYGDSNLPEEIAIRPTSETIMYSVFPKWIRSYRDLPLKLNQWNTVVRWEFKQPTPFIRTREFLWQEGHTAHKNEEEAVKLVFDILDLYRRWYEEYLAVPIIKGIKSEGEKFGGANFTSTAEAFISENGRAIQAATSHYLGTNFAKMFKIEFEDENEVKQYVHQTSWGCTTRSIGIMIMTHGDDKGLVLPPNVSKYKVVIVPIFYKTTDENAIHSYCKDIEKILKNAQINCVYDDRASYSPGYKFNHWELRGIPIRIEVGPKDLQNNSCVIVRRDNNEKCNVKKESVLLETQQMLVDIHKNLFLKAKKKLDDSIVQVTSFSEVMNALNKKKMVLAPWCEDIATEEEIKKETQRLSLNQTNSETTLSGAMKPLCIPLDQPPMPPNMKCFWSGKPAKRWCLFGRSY
As to the kind of experiment: MMV: ProRS recombinant Plasmodium falciparum Prolyl-tRNA-synthetase, assay with yeast tRNA, ATP, and proline and 3 uM MMV malaria box compound, assay read out with kinase glo as % inhibition.

Test [3] concerns the target Lysine--tRNA ligase (Plasmodium falciparum (isolate 3D7), UniProt Q8IDJ8). As to the kind of experiment: MMV: KRS recombinant Plasmodium falciparum Lysyl-tRNA-synthetase, assay with yeast tRNA, ATP, and lysine and 3 uM MMV malaria box compound, assay read out with kinase glo as % inhibition.
Test [4] addresses T3, Mitogen-activated protein kinase (Plasmodium falciparum, UniProt Q25917).
T3 sequence (Q25917 whole entry): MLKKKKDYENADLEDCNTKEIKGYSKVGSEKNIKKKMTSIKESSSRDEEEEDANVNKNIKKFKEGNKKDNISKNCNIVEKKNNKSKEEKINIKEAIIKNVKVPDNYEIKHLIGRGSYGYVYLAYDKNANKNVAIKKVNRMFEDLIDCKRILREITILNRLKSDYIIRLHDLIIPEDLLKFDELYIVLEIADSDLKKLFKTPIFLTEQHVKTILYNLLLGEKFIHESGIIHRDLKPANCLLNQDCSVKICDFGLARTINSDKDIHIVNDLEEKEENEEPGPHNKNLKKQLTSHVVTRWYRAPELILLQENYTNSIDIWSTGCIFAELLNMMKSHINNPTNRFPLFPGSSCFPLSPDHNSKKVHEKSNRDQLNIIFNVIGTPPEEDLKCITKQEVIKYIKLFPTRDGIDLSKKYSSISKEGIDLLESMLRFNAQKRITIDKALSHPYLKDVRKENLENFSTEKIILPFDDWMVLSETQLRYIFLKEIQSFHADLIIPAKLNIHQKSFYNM
As to the kind of experiment: Final concentrations were 1 uM ATP, 0.5 mM DTT, 1 mM MgCl2, 0.5 mg/mL BSA, and 10 ug/ml MAP2 in a buffer of 50 mM HEPES (pH 7.0). 0.5 mg/mL histone III-S served as the substrate (13); 100 uM AMP-PNP, an ATP analog, was used as a control inhibitor. Incubation time was 4 hours.

Test [5] concerns the target T4, Putative uncharacterized protein pk7 (Plasmodium falciparum, UniProt O96214).
T4 sequence (O96214 whole entry): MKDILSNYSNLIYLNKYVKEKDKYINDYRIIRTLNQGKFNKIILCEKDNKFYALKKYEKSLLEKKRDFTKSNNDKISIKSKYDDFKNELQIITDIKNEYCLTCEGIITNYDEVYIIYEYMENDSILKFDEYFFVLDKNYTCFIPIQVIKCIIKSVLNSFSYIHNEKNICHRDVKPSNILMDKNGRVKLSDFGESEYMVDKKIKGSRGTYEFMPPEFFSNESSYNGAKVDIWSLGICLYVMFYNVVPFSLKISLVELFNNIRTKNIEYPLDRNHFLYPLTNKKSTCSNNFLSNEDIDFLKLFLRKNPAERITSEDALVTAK
The test is described as follows: Final concentrations were 1 uM ATP, 2 mM DTT, 20 mM MgCl2, 2 mM MnCl2, 0.01% BSA, and 6 ug/ml PK7, in a buffer of 20 mM Tris-HCl (pH 7.5). The enzyme itself was the only substrate present (since autophosphorylation occurs); 100 uM 1NA-PP1 was used as a control inhibitor. Incubation time was 3 hours.

Test [6] deals with Calcium-dependent protein kinase 1 (Plasmodium falciparum, UniProt P62344). As to the kind of experiment: MMV: CDPK1 Protein kinase inhibition assay using recombinant PfCDPK1, syntide 2 peptide substrate, ATP and KinaseGlo to measure % inhibition at 1 uM MMV box compound.
Calcium-dependent protein kinase 1, sequence (P62344 whole entry): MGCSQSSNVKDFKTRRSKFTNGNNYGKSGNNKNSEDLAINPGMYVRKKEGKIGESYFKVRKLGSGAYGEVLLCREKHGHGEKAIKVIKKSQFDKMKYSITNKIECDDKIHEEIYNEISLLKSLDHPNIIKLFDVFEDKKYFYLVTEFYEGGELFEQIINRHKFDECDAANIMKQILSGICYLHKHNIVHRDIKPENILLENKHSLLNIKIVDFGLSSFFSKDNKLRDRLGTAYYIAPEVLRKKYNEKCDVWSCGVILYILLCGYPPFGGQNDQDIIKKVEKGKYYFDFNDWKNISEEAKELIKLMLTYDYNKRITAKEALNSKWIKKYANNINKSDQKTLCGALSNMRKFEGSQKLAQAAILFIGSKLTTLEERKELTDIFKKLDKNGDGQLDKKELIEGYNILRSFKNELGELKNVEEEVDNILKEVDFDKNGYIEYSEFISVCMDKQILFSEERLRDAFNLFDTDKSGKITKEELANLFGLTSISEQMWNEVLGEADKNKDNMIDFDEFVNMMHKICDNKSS
For test [7], the target named is T5, Calcium-dependent protein kinase 4 (Plasmodium falciparum (isolate 3D7), UniProt Q8IBS5).
T5 sequence (Q8IBS5 whole entry): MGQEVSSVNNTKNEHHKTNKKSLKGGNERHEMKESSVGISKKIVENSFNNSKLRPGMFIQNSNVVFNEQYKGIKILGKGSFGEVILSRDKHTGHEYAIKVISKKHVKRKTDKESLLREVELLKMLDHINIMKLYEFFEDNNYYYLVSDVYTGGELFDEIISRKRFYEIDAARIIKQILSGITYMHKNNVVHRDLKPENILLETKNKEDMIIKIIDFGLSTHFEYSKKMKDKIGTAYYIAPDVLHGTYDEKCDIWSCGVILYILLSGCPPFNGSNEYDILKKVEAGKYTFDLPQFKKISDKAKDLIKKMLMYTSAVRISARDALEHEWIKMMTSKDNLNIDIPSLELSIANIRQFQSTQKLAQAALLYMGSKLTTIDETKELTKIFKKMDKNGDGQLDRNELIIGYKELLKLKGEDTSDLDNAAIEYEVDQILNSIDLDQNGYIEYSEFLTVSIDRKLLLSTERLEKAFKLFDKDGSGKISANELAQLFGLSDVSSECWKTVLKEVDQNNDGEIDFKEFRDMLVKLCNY
As to the kind of experiment: MMV: CDPK4 Protein kinase inhibition assay using recombinant PfCDPK4, syntide2 peptide substrate, ATP and KinaseGlo to measure % inhibition at 1 uM MMV box compound.

Each structure is given as a SMILES string. pIC50: −log10 of the molar value.

Lysine--tRNA ligase, sequence (Q8IDJ8 whole entry): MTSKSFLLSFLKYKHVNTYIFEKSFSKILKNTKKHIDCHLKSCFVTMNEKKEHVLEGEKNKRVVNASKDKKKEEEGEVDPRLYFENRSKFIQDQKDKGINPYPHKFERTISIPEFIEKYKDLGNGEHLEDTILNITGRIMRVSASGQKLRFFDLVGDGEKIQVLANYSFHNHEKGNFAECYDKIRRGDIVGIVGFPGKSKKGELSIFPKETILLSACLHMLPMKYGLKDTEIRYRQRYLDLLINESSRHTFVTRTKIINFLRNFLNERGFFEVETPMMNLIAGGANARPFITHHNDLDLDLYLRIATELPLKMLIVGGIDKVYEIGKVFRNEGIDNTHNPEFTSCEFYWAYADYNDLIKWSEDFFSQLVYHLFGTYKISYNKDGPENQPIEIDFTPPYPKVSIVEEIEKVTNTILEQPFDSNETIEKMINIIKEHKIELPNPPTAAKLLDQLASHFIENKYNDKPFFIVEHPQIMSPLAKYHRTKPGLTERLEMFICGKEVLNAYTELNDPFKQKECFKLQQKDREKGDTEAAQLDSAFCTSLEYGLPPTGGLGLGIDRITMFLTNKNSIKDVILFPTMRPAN

Turning to `COc1ccc(Nc2nc(N/N=C/c3ccc(O)cc3)nc(Nc3ccc([N+](=O)[O-])cc3)n2)cc1`, the negative-log IC50 (pIC50) (in general, −log10 of the IC50, conventionally taken in molar units) in test [1] was less than 6.00; in test [2] it was less than 5.60; in test [3] it was less than 5.60; in test [4], less than 6.00; in test [5], less than 6.00; in test [6] it was less than 6.00. In test [7], the pIC50 is less than 6.00.
As for `O=C(NNc1cc(N2CCCC2)nc(N2CCCC2)n1)c1ccccc1`, the negative-log IC50 (pIC50) in test [1] is less than 6.00; in test [2], less than 5.60; in test [3] it was less than 5.60; in test [4], less than 6.00; in test [5] it was less than 6.00; in test [6], less than 6.00. In addition, the pIC50 in test [7] is less than 6.00.
As for `COC(=O)c1ccc(Cl)c2c1C1C=CCC1C(c1cccc3ccccc13)N2` (centres undefined), the pIC50 in test [1] is less than 6.00; in test [2] it was less than 5.60; in test [3], less than 5.60; in test [4], less than 6.00; in test [5] it was less than 6.00; in test [6], less than 6.00. Moreover, in test [7], the negative-log IC50 (pIC50) is less than 6.00.
`O=C(CCc1ccccc1)c1ccccc1OCC(O)CN1CCCCC1` (centres undefined): the negative logarithm of the IC50 (pIC50) in test [1] was less than 6.00; in test [2], less than 5.60; in test [3], less than 5.60; in test [4], less than 6.00; in test [5], less than 6.00; in test [6], less than 6.00. In test [7], the negative logarithm of the IC50 (pIC50) is less than 6.00.
As for `Cn1c(C(=O)c2cccc3ccccc23)nc2ccccc21`, the pIC50 in test [1] was less than 6.00; in test [2], less than 5.60; in test [3] it was less than 5.60; in test [4] it was less than 6.00; in test [5], less than 6.00; in test [6], less than 6.00. Moreover, the negative logarithm of the IC50 (pIC50) in test [7] is less than 6.00.
Consider `OCCNc1nc(Nc2ccc(Cl)c(Cl)c2)nc2ccccc12`, for which the pIC50 was less than 6.00 in test [1]; less than 5.60 in test [2]; less than 5.60 in test [3]; less than 6.00 in test [4]; less than 6.00 in test [5]; less than 6.00 in test [6]. Moreover, the pIC50 in test [7] was less than 6.00.
As for `Nc1ccc(-c2nc3cc(Oc4ccc(Oc5ccc6[nH]c(-c7ccc(N)cc7)nc6c5)cc4)ccc3[nH]2)cc1`, the pIC50 was less than 6.00 in test [1]; less than 5.60 in test [2]; less than 5.60 in test [3]; less than 6.00 in test [4]; less than 6.00 in test [5]; less than 6.00 in test [6]. For the same molecule, in test [7], the negative-log IC50 (pIC50) is less than 6.00.
Consider `CCc1ccc(CNCC(O)c2ccccc2)cc1` (centres undefined), for which the pIC50 was less than 6.00 in test [1]; less than 5.60 in test [2]; less than 5.60 in test [3]; less than 6.00 in test [4]; less than 6.00 in test [5]; less than 6.00 in test [6]. Besides, the negative logarithm of the IC50 (pIC50) in test [7] was less than 6.00.
With `CCCn1c(=N)c(C(=O)NC2CCCCC2)cc2c(=O)n3cccc(C)c3nc21`, the negative-log IC50 (pIC50) in test [1] was less than 6.00; in test [2] it was less than 5.60; in test [3], less than 5.60; in test [4], less than 6.00; in test [5], less than 6.00; in test [6], less than 6.00. Also, in test [7], the pIC50 was less than 6.00.
Turning to `Nc1ccn([C@@H]2O[C@H](CO)[C@@H](O)[C@H]2O)c(=O)n1` [CYTIDINE], the pIC50 in test [1] was less than 6.00; in test [2], less than 5.60; in test [3], less than 5.60; in test [4], less than 6.00; in test [5] it was less than 6.00; in test [6], less than 6.00. Further, the negative-log IC50 (pIC50) in test [7] is less than 6.00.
Take `O=C(Nc1cccc(C2=NCCN2)c1)Nc1cccc(C2=NCCN2)c1` [IMIDOCARB]: the pIC50 in test [1] was less than 6.00; in test [2] it was less than 5.60; in test [3], less than 5.60; in test [4] it was less than 6.00; in test [5] it was less than 6.00; in test [6], less than 6.00. Also, in test [7], the pIC50 is less than 6.00.
On to `CN(C)c1ccc(C(O)(c2ccc(N(C)C)cc2)c2ccc(N(C)C)cc2)cc1` [METHYLROSANILINE], for which the pIC50 is less than 6.00 in test [1]; less than 5.60 in test [2]; less than 5.60 in test [3]; less than 6.00 in test [4]; less than 6.00 in test [5]; less than 6.00 in test [6]. For the same molecule, in test [7], the pIC50 is less than 6.00.
